Measurements as given in US12522614B2, “Topical phosphoinositide 3-kinase inhibitors” (VENTHERA, INC., priority 2019, dated 2026).
Values belong to the compound of their own block, whether it stands above or below them.

Columns and labels:
[1] = In vitro human skin permeation study of topical gel formulations (Franz diffusion cells); format: in vitro ADME; settings: saturated gel formulations, skin flux experiments
Source text: The gel formulation of Example 8 was used as the donor phase to determine the permeation of Compound 1.002 through human skin and its effectiveness as a topical application. Three skin donors and three diffusion cells (for each donor) per formulation were used in the in vitro skin permeation experiments. Split thickness dermatomed (approximately at […] thickness) human cadaver skin, supplied by New York Firefighters Skin Bank, NY, was used to determine the permeation rate of the tested compound (i.e., the drug) in vitro. All in vitro skin permeation studies were conducted using the Vertical Diffusion Cells assembly with consoles (Model FDC-6), and heating controllers (Logan Instruments Inc. Somerset, NJ). Each assembly consisted of six vertical, jacketed (37° C.±0.5° C.) 12-mL Franz diffusion cells with magnetic stirrer and 1.767 cm^2 diffusion area.
(§1) Skin flux studies were run for a period of 48 hours. At predetermined intervals (2, 4, 8, 24 and 48 hours) after starting the experiment, the entire contents of the receiver compartment were collected for determining concentrations of the drug by HPLC. The receiver compartment was refilled with fresh receiver medium. The receiver medium was pH 7.4 phosphate buffer with 0.5 mg/ml of Oleath 20 with the saturation concentration of the drug in the receptor medium being 0.152 mg/ml. This solubility of the drug in the receiver medium was enough to ensure sink conditions throughout each collection interval.
Samples of the receptor phase were obtained at 2, 4, 8, 12, 24 and 48 h and concentrations of Compound 1.002 and 3-(4-morpholinothieno(3,2-d)pyrimidin-2-yl)phenol (metabolite of Compound 1.002, abbreviated as MTPP) were determined using a validated HPLC method. The metabolism of Compound 1.002 to MTPP takes place in the human skin by esterase enzymes.
HPLC method: Column—Gemini C-18 4.6×150 mm, 5 μm particle size; Mobile Phase—water:acetonitrile 25:75 containing 0.1% TFA; Flow Rate—1 mL/min; Detection—274 nm; Column Temperature—40° C.; and Run Time—10 min. The retention times for MTPP and Compound 1.002 were 3.9 and 7.2 minutes, respectively.
The skin flux of drugs and cumulative amount of drugs permeated (sum of MTPP and Compound 1.002) for a period of 48 hours were calculated and are shown in Table 3. FIG. 3 represents a plot of Cumulative amount permeated versus time.

[2] = as above; format: in vitro ADME; settings: human skin; for Cumulative permeation (intact compound) / Hydrolysis of Cmpd. 1.001 to MTPP: Study-4, saturated gel
[3] = Saturation concentration in formulation or receiver medium; format: physicochemical; settings: gel formulation with excipients of Example 8 (Table 2)
Protocol: The liquid excipients, i.e. DMSO, oleic acid, Transcutol® P, and dipropylene glycol were mixed in a 20-mL vial, by vortex agitation. The active ingredient, a compound of formula (I), for example Compound 1.002 was then added, and the vial content was sonicated for 10 minutes to dissolve the compound. […] Hydroxylpropyl cellulose (HPC) was added, and the vial was agitated by vortex for another ten minutes to obtain the gel formulation. The viscosity of the clear gel was measured to be in a range of about 7,000 to 10,000 centipoise (cp).
as §1

[4] = Accelerated stability study of topical gel formulations at 80° C.; format: physicochemical; settings: for Relative Purity: gel formulation (Table 2 excipients); for Relative Purity / percent hydrolysis to the parent compound MTPP: 80° C.; for percent hydrolysis to the parent compound MTPP: gel formulation
Protocol: Topical gel formulations were prepared using excipients as shown in Table 2 according to Example 8, in which Compounds 1.002, 1.012, and 1.006 were used as the active ingredient, respectively. These gel formulations were subjected to stability study at 80° C. for 10 days. Stability under the condition of at 80° C. for 10 days is expected to be approximately equivalent to the stability for three (3) years at room temperature. A relative purity of the tested compound after being exposed for 5 days and 10 days at 80° C. was determined by HPLC, as compared to its initial purity (at day 0).
The values shown in the table are percent hydrolysis of the respective compounds to the parent compound MTPP.
Topical gel formulations of Compound 1.002 were prepared using excipients as shown in Table 2 according to Example 8, in which the content of oleic acid varied at 1%, 2%, 5%, and 10%, respectively. These gel formulations were subjected to stability study at 80° C. for 10 days, which is expected to be approximately equivalent to the stability for three (3) years at room temperature. A purity of the tested compound on day 0, 5, 7, and 10 at 80° C. was determined by HPLC. The detected impurity of the tested compound appears to be the hydrolysis product, as MTPP. Table 17 represents stability data of Compound 1.002 in topical formulations having oleic acid at various contents.
Gel formulations of Example 17 were subjected to stability study at 80° C. for 10 days. Stability under the condition of at 80° C. for 10 days is expected to be approximately equivalent to the stability for three (3) years at room temperature. A relative purity of Compound 1.002 after being exposed for 5 days and 10 days at 80° C. was determined by HPLC, as compared to its initial purity (at day 0).

[5] = as above; format: physicochemical; settings: gel formulation, 3 days
[6] = Study-5, Table 6A experiment, saturated gel, 2 h
[7] = Study-5, Table 6A experiment, saturated gel, 4 h
[8] = Study-5, Table 6A experiment, saturated gel, 8 h
[9] = Study-5, Table 6A experiment, saturated gel, 24 h
[10] = Study-5, Table 6A experiment, saturated gel, 48 h
[11] = Study-5, Table 6B experiment, gel saturated at 215 mg/mL, 2 h
[12] = Study-5, Table 6B experiment, gel saturated at 215 mg/mL, 4 h
[13] = Study-5, Table 6B experiment, gel saturated at 215 mg/mL, 8 h
[14] = Study-5, Table 6B experiment, gel saturated at 215 mg/mL, 24 h
[15] = Study-5, Table 6B experiment, gel saturated at 215 mg/mL, 48 h

Metabolism to MTPP during permeation through human skin [1]: appeared not to metabolize to MTPP | Cumulative permeation (intact compound) ([2]; 2 h): 0.0 μg/cm^2 | Hydrolysis of Cmpd. 1.001 to MTPP ([2]; 2 h): 0.0 | Cumulative permeation (intact compound) ([2]; 4 h): 10.2 μg/cm^2 | Hydrolysis of Cmpd. 1.001 to MTPP ([2]; 4 h): 0.0 | Cumulative permeation (intact compound) ([2]; 8 h): 51.8 μg/cm^2 | Hydrolysis of Cmpd. 1.001 to MTPP ([2]; 8 h): 0.0 | Cumulative permeation (intact compound) ([2]; 24 h): 202.1 μg/cm^2 | Hydrolysis of Cmpd. 1.001 to MTPP ([2]; 24 h): 0.0 | Cumulative permeation (intact compound) ([2]; 48 h): 260.4 μg/cm^2 | Hydrolysis of Cmpd. 1.001 to MTPP ([2]; 48 h): 0.0
SMILES: COc1cccc(-c2nc(N3CCOCC3)c3sccc3n2)c1 [Compound 1.001, 4-(2-(3-Methoxyphenyl)thieno[3,2-d]pyrimidin-4-yl)morpholine]

Metabolism to MTPP during permeation through human skin [1]: metabolize into MTPP | Saturation concentration in the gel formulation [3]: 215 mg/mL | Relative Purity ([4]; Day 0): 100% | Relative Purity ([4]; Day 5): 94% | Relative Purity ([4]; Day 10): 92% | Cumulative permeation, Compound 1.006 [2, 6]: 0.0 μg/cm^2 | Hydrolysis of Cmpd. 1.006 to MTPP [2, 6]: 100% | Cumulative permeation, Compound 1.006 [2, 7]: 0.0 μg/cm^2 | Hydrolysis of Cmpd. 1.006 to MTPP [2, 7]: 100% | Cumulative permeation, Compound 1.006 [2, 8]: 1.0 μg/cm^2 | Hydrolysis of Cmpd. 1.006 to MTPP [2, 8]: 96.7% | Cumulative permeation, Compound 1.006 [2, 9]: 13.0 μg/cm^2 | Hydrolysis of Cmpd. 1.006 to MTPP [2, 9]: 79.5% | Cumulative permeation, Compound 1.006 [2, 10]: 30.5 μg/cm^2 | Hydrolysis of Cmpd. 1.006 to MTPP [2, 10]: 82.0% | Cumulative permeation, Compound 1.006 [2, 11]: 0.0 μg/cm^2 | Hydrolysis of Cmpd. 1.006 to MTPP [2, 11]: 100% | Cumulative permeation, Compound 1.006 [2, 12]: 0.5 μg/cm^2 | Hydrolysis of Cmpd. 1.006 to MTPP [2, 12]: 93.3% | Cumulative permeation, Compound 1.006 [2, 13]: 0.5 μg/cm^2 | Hydrolysis of Cmpd. 1.006 to MTPP [2, 13]: 97.8% | Cumulative permeation, Compound 1.006 [2, 14]: 0.6 μg/cm^2 | Hydrolysis of Cmpd. 1.006 to MTPP [2, 14]: 98.9% | Cumulative permeation, Compound 1.006 [2, 15]: 0.6 μg/cm^2 | Hydrolysis of Cmpd. 1.006 to MTPP [2, 15]: 99.4%
SMILES: CCCCCC(=O)Oc1cccc(-c2nc(N3CCOCC3)c3sccc3n2)c1 [Compound 1.006, 3-(4-Morpholinothieno[3,2-d]pyrimidin-2-yl)phenyl Hexanoate]

percent hydrolysis to the parent compound MTPP [5]: 0.20% | Stability in gel formulation ([4]; 80° C. for 10 days): very stable | percent hydrolysis to the parent compound MTPP ([4]; 0 days): 0.00% | percent hydrolysis to the parent compound MTPP ([4]; 5 days): 0.28% | percent hydrolysis to the parent compound MTPP ([4]; 7 days): 0.39% | percent hydrolysis to the parent compound MTPP ([4]; 10 days): 0.56%
SMILES: CCCCCCCCCC(=O)Oc1cccc(-c2nc(N3CCOCC3)c3sccc3n2)c1 [Compound 1.008, 3-(4-Morpholinothieno[3,2-d]pyrimidin-2-yl)phenyl Decanoate]
